Measured values taken from patent US10517889B2, “Modulators of SMAD7 expression” (Ionis Pharmaceuticals, Inc., priority 2017, dated 2019).
Strand notation (5' to 3'): a small letter for the sugar, then the base; units joined by * are phosphorothioate-linked, units joined directly phosphodiester-linked; [ ] holds rarer units or linkages, { } end groups; capitals alone tell only the bases. k = constrained ethyl (cEt); [5mC] = 5-methylcytosine; d = 2'-deoxy (DNA)

tested on: human SMAD7 mRNA; assay: Antisense inhibition of human SMAD7 mRNA expression in Hep3B cells by 3-10-3 cEt gapmers, 10,000 nM, electroporation (Example 2); assay type: cell-based; details: Hep3B cells, 10,000 nM antisense oligonucleotide, electroporation, approximately 24 hours, RT-PCR primer probe set RTS5062, relative to untreated control cells
Protocol: Antisense oligonucleotides were designed to target human SMAD7 mRNA and were tested for their effects on SMAD7 mRNA expression in vitro. The antisense oligonucleotides were tested in a series of experiments that had similar culture conditions, as described below. ION 771576, described in the studies above and which is a 5-10-5 MOE gapmer, was also included in these assays. Cultured Hep3B cells at a density of 20,000 cells per well were transfected using electroporation with 10,000 nM antisense oligonucleotide. After a treatment period of approximately 24 hours, RNA was isolated from the cells and SMAD7 mRNA levels were measured by quantitative real-time PCR. Primer probe set RTS5062 was used to measure human SMAD7 mRNA levels. SMAD7 mRNA levels were adjusted according to total RNA content, as measured by RIBOGREEN®. Results are presented as percent inhibition of SMAD7 mRNA expression, relative to untreated control cells.
The newly designed chimeric antisense oligonucleotides in the Tables below were designed as 3-10-3 cEt gapmers. The gapmers are 16 nucleosides in length, wherein the central gap segment comprises often 2′-deoxynucleosides and is flanked by wing segments on the 5′ direction and the 3′ direction comprising three nucleosides each. Each nucleoside in the 5′ wing segment and each nucleoside in the 3′ wing segment has a cEt sugar modification. The internucleoside linkages throughout each gapmer are phosphorothioate (P═S) linkages. All cytosine residues throughout each gapmer are 5-methylcytosines.
“Start site” indicates the 5′-most nucleoside to which the gapmer is targeted in the human gene sequence. “Stop site” indicates the 3′-most nucleoside to which the gapmer is targeted human gene sequence. […] Some of the oligonucleotides presented were complementary to SMAD7 mRNA sequences RefSeqNo. NM_001190821.1 (designated herein as SEQ ID NO: 3) or RefSeqNo. NM_001190822.1 (designated herein as SEQ ID NO: 4), and are presented in a separate table shown below.

| Substance | % Inhibition [%] |
| --- | --- |
| 799919 (antisense kT*k[5mC]*k[5mC]*dT*dA*dA*dG*dA*dG*d[5mC]*dA*dT*dT*kT*kA*kT) [compound 799919] | 0 |

same assay, conditions: Hep3B cells, electroporation with 10,000 nM antisense oligonucleotide, approximately 24 hours, RTS5062, percent inhibition of SMAD7 mRNA relative to untreated control cells

| Substance | % Inhibition [%] |
| --- | --- |
| 799666 (antisense k[5mC]*kA*kG*dA*dT*dG*d[5mC]*d[5mC]*dA*dG*d[5mC]*dA*dA*kG*kG*kA) [compound 799666] | 51 |

same assay, conditions: Hep3B cells, electroporation with 10,000 nM antisense oligonucleotide, approximately 24 hours, SMAD7 mRNA by RT-PCR (RTS5062), relative to untreated control cells

| Substance | % Inhibition [%] |
| --- | --- |
| 799505 (antisense k[5mC]*k[5mC]*k[5mC]*dG*dG*d[5mC]*dT*dA*dA*dG*dG*dA*dA*kA*kG*kG) [compound 799505] | 31 |
| 798862 (kT*k[5mC]*k[5mC]*dA*dG*dT*dG*dT*dG*dG*d[5mC]*dG*dG*kA*k[5mC]*kT; antisense) [compound 798862] | 20 |
| 799387 (antisense k[5mC]*k[5mC]*kA*dG*dG*dA*dG*d[5mC]*dT*dA*dA*dA*dT*kG*kG*kT) [compound 799387] | 22 |
| 830107 (kT*k[5mC]*kA*dT*dT*dA*dA*dG*d[5mC]*d[5mC]*d[5mC]*dG*d[5mC]*kT*k[5mC]*kT; antisense) [compound 830107] | 50 |
| 830111 (k[5mC]*k[5mC]*k[5mC]*dA*dT*dT*d[5mC]*dA*dT*dT*dA*dA*dG*k[5mC]*k[5mC]*k[5mC]; antisense) [compound 830111] | 38 |
| 830090 (kA*kT*kA*d[5mC]*dA*d[5mC]*dA*dA*dG*dA*d[5mC]*d[5mC]*d[5mC]*kT*kG*kT; antisense) [compound 830090] | 10 |
| 799348 (kA*kT*kA*dA*dA*dA*dG*dG*dA*dA*dA*dG*dG*kA*kG*kT; antisense) [compound 799348] | 21 |
| 830202 (antisense kT*k[5mC]*kT*dG*dA*dA*dG*dG*d[5mC]*dT*dA*d[5mC]*dA*k[5mC]*k[5mC]*kA) [compound 830202] | 50 |
| 798880 (kT*k[5mC]*k[5mC]*dA*d[5mC]*dG*dG*d[5mC]*dT*dG*d[5mC]*dT*dG*k[5mC]*kA*kT; antisense) [compound 798880] | 37 |
| 798669 (k[5mC]*kG*k[5mC]*dT*d[5mC]*d[5mC]*dG*dT*dG*dG*d[5mC]*dA*dT*kG*k[5mC]*kG; antisense) [compound 798669] | 0 |
| 798738 (antisense k[5mC]*kT*kT*d[5mC]*dA*dG*dA*dT*d[5mC]*d[5mC]*dG*d[5mC]*d[5mC]*kT*k[5mC]*kG) [compound 798738] | 25 |

same assay, conditions: Hep3B cells, electroporation with 10,000 nM antisense oligonucleotide, approximately 24 hours, primer probe set RTS5062, relative to untreated control cells

| Substance | % inhibition of SMAD7 mRNA expression [%] | % Inhibition [%] |
| --- | --- | --- |
| 799005 (antisense k[5mC]*kG*kT*dG*d[5mC]*dA*d[5mC]*dA*d[5mC]*dA*d[5mC]*dA*dG*k[5mC]*k[5mC]*kG) [compound 799005] | 0 |  |
| 799047 (antisense kT*kT*kG*dA*dT*dG*dA*dG*dG*dG*dA*dG*dA*kG*kG*kA) [compound 799047] | 63 |  |
| 799204 (antisense k[5mC]*kT*k[5mC]*dA*dG*dG*dT*dT*dT*dT*dT*dT*dT*kT*k[5mC]*kA) [compound 799204] | 36 |  |
| 799205 (antisense kT*kA*kA*dA*dT*d[5mC]*dT*d[5mC]*dA*dG*dG*dT*dT*kT*kT*kT) [compound 799205] | 54 |  |
| 798760 (kG*kA*kG*dG*dG*d[5mC]*dG*dG*d[5mC]*dT*dG*d[5mC]*dG*k[5mC]*kA*kG; antisense) [compound 798760] | 47 |  |
| 799017 (kT*kG*k[5mC]*dA*dA*dA*d[5mC]*d[5mC]*dT*d[5mC]*dT*d[5mC]*dT*kG*k[5mC]*kT; antisense) [compound 799017] |  | 0 |
| 798955 (antisense kT*kT*k[5mC]*dA*dT*dA*dA*dG*d[5mC]*dT*dA*dT*dT*kT*k[5mC]*kT) [compound 798955] |  | 15 |
| 798968 (antisense k[5mC]*kG*kA*dT*d[5mC]*dA*dT*dA*d[5mC]*d[5mC]*dT*dG*d[5mC]*k[5mC]*k[5mC]*k[5mC]) [compound 798968] | 62 |  |
| 799109 (antisense k[5mC]*kA*kG*dT*dG*d[5mC]*dT*dG*dA*dG*d[5mC]*dT*dG*kG*kT*kT) [compound 799109] | 48 |  |
| 799049 (antisense kG*k[5mC]*k[5mC]*d[5mC]*dG*dT*dG*dT*d[5mC]*d[5mC]*dT*dT*dG*kA*kT*kG) [compound 799049] | 44 |  |
| 799207 (k[5mC]*kT*kT*dT*dA*dT*dA*dT*dT*dT*dA*d[5mC]*dA*kA*kG*kT; antisense) [compound 799207] |  | 0 |
| 799161 (antisense k[5mC]*kA*kT*dA*d[5mC]*dG*dA*dG*dT*dG*dT*dA*dT*kG*kA*kG) [compound 799161] |  | 29 |
| 798746 (antisense kT*kG*kG*dA*dG*d[5mC]*dA*dG*d[5mC]*dA*dG*d[5mC]*dT*k[5mC]*k[5mC]*kA) [compound 798746] | 30 |  |
| 799362 (k[5mC]*kA*kT*d[5mC]*dA*dA*d[5mC]*d[5mC]*dA*dG*dT*d[5mC]*d[5mC]*kT*kA*kT; antisense) [compound 799362] | 39 |  |

same assay, conditions: Hep3B cells, electroporation, 10,000 nM antisense oligonucleotide, approximately 24 hours, RTS5062, relative to untreated control cells

| Substance | % inhibition of SMAD7 mRNA expression [%] |
| --- | --- |
| 799308 (antisense k[5mC]*kG*k[5mC]*dT*d[5mC]*dT*dA*dA*dA*d[5mC]*dA*dG*d[5mC]*kA*kT*kG) [compound 799308] | 47 |
| 799697 (antisense kA*kA*kT*dA*dG*dT*dT*dT*dT*d[5mC]*dT*d[5mC]*dT*k[5mC]*kA*kA) [compound 799697] | 59 |
| 799499 (antisense kT*k[5mC]*k[5mC]*dT*dT*dT*dA*dG*dT*dG*dG*d[5mC]*d[5mC]*kT*kA*k[5mC]) [compound 799499] | 54 |
| 799714 (antisense k[5mC]*kA*k[5mC]*d[5mC]*dA*dA*dA*dA*d[5mC]*dA*dA*dG*dT*kG*kT*k[5mC]) [compound 799714] | 33 |

same assay, conditions: SMAD7 mRNA, Hep3B cells, 10,000 nM antisense oligonucleotide, electroporation, approximately 24 hours, primer probe set RTS5062, relative to untreated control cells

| Substance | % Inhibition [%] |
| --- | --- |
| 790747 (kG*kT*kA*d[5mC]*dA*dA*dT*d[5mC]*dT*d[5mC]*d[5mC]*dT*dG*kG*kA*kA; antisense) [compound 790747] | 8 |
| 800998 (antisense k[5mC]*k[5mC]*k[5mC]*dG*d[5mC]*dT*d[5mC]*dT*d[5mC]*dA*dG*d[5mC]*d[5mC]*kA*kG*kG) [compound 800998] | 39 |
| 790855 (kA*k[5mC]*k[5mC]*dT*dT*dT*dT*d[5mC]*d[5mC]*dG*dG*dT*dA*kT*kT*kT; antisense) [compound 790855] | 40 |

same assay, conditions: SMAD7 mRNA, Hep3B cells, electroporation with 10,000 nM antisense oligonucleotide, approximately 24 hours, primer probe set RTS5062, relative to untreated control cells

| Substance | % Inhibition [%] |
| --- | --- |
| 829992 (kG*k[5mC]*kA*dG*dG*dG*d[5mC]*d[5mC]*dG*d[5mC]*dG*dA*dG*kG*k[5mC]*kG; antisense) [compound 829992] | 10 |
| 829916 (antisense kG*kA*kA*dG*dA*dG*dT*dT*dA*dG*dG*dT*dG*kT*k[5mC]*kA) [compound 829916] | 33 |
| 829946 (kG*k[5mC]*kA*dG*d[5mC]*d[5mC]*dA*dG*dT*dT*dA*dA*dT*k[5mC]*kA*kT; antisense) [compound 829946] | 44 |
| 829830 (kA*kA*kT*d[5mC]*dT*dG*dA*dA*dA*dG*d[5mC]*d[5mC]*d[5mC]*k[5mC]*k[5mC]*k[5mC]; antisense) [compound 829830] | 36 |
| 829944 (k[5mC]*k[5mC]*kA*dG*dT*dT*dA*dA*dT*d[5mC]*dA*dT*dT*kA*k[5mC]*kT; antisense) [compound 829944] | 23 |
